Experimental data: article PMC8839375, “Alpha-Glucosidase Inhibition and Molecular Docking of Isolated Compounds from Traditional Thai Medicinal Plant, Neuropeltis racemosa Wall” (Molecules, 2022)
pIC50: −log10 of the molar value. Read-outs that look alike come from different tables or passages of the source. Marks after values point to notes of the source that are not given here. Values belong to the compound of their own block, whether it stands above or below them.

Legend:
[1] = target: T1, alpha-glucosidase (Saccharomyces cerevisiae, UniProt P53341); settings: cited from earlier work; for pIC50: ref 13
T1 sequence (P53341 whole entry): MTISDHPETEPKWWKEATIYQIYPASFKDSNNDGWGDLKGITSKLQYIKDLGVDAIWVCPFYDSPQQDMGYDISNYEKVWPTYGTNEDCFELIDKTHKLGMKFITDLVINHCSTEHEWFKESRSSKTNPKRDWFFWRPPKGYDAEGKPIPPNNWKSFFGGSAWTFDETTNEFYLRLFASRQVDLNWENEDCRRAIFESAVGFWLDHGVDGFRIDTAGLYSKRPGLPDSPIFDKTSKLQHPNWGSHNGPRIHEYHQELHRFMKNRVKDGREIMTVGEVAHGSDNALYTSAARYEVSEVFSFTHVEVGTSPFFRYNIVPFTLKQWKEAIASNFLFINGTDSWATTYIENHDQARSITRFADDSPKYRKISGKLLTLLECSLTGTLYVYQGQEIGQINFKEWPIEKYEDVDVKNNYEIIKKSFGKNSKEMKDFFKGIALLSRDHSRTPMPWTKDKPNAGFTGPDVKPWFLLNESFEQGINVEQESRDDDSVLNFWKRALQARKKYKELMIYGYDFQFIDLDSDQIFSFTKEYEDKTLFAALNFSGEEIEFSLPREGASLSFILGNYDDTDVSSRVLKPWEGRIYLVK

[2] = target: T1, alpha-glucosidase; experiment: enzyme kinetic study (Lineweaver-Burk and secondary plots); format: biochemical; settings: for inhibition type: Lineweaver-Burk plot; for Ki′: inhibition constant when inhibitor bound with enzyme-substrate complex, secondary plot
Procedure: The double reciprocal Lineweaver–Burk plot was used to determine the mode of inhibition, while the secondary plots conducted the inhibition constants. […] Briefly, the enzyme inhibition procedure was performed as mention above. The 6 concentrations of pNPG (5–0.1 mM), the fixed enzyme concentration (1 unit/mL), and the 3 concentrations of each effective sample were evaluated for the manner of inhibition.

[3] = test system: alpha-amylase; design: method as in PMID 31185767; settings: ref 15; cited from earlier work

inhibition type [2]: Uncompetitive
Ki′ [2]: 51.81 µM
Ki′ ([2]; listed as N-trans-feruloyltyramine (4)): 51.81 ^c µM
Structure (SMILES): COc1cc(/C=C/C(=O)NCCc2ccc(O)cc2)ccc1O [Compound 4, N-trans-feruloyltyramine]
inhibition type ([1]; ref 11, 13): uncompetitive
inhibition type ([1]; ref 12): non-competitive
pIC50 [1]: 5.45

Structure (SMILES): O=C(/C=C/c1ccc(O)cc1)NCCc1ccc(O)cc1 [Compound 5, N-trans-coumaroyltyramine]
inhibition type ([1]; ref 11, 13): uncompetitive
inhibition type ([1]; ref 12): non-competitive
pIC50 [1]: 6.24
inhibition type [2]: Uncompetitive
Ki′ [2]: 1.99 µM
Ki′ ([2]; listed as N-trans-coumaroyltyramine (5)): 1.99 ^c µM

Structure (SMILES): C[C@H]1O[C@H](O[C@H]2[C@H](O)[C@@H](O)[C@@H](O[C@H]3[C@H](O)[C@@H](O)C(O)O[C@@H]3CO)O[C@@H]2CO)[C@H](O)[C@@H](O)[C@@H]1N[C@H]1C=C(CO)[C@@H](O)[C@H](O)[C@H]1O (stereo partly drawn) [Acarbose, acarbose, reference compound]
inhibition type [2]: Competitive

Structure (SMILES): COc1cc2ccc(=O)oc2cc1O [Compound 1, scopoletin]
inhibition type ([1]; ref 20): competitive
inhibition type [2]: mixed-type
inhibition type ([2]; listed as Scopoletin (1)): Mixed
alpha-amylase inhibitory activity [3]: potent inhibitory activity

Structure (SMILES): COc1cc(C(=O)O)cc(OC)c1O [Compound 2, syringic acid]
inhibition type ([1]; ref 9): either in a competitive or an uncompetitive manner
